Format in all cases: cell-based
The subject of assay [1] is A2780wt cells. Put plainly: Annexin V/PI staining and FACS analysis, A2780wt. Conditions: reference at 50 µM, 24 h. As to the method:
(§1) Therefore, we aimed to evaluate the apoptosis and necrosis inducing potential of complexes 1–4 via a fluorescent‐activated cell sorting (FACS) analysis with Annexin V/propidium iodide (PI) staining in A2780wt and A2780cis cells. Cells were treated for 24 h with both the free and BG‐loaded forms of each compound at 25 µM. Carboplatin (50 µM) served as a reference.
(§2) To evaluate the mode of cell death, a FACS measurement after staining with Annexin V and PI was conducted. First, 0.3 × 10^6 A2780wt or A2780cis cells were seeded into 12‐well plates and were allowed to adhere for 24 h. The compounds were added at 25 µM, either diluted from a freshly prepared DMF stock solution (0.1% DMF) or freshly thawed when loaded in BGs. After 24 h of incubation, the cells were harvested with accutase and washed with PBS. The cells were then resuspended in 200 µL of PBS each and 1 µL of PI solution (Sigma‐Aldrich, Taufkirchen, Germany) and 1 µL of Annexin V‐FITC (MabTag GmbH, Friesoythe, Germany) were added to each sample. These were then incubated for 20 min at rt under light‐protected conditions and afterward transferred onto ice. The percentage of apoptotic cells was determined by analyzing Annexin V positive /PI negative cells using a BD LSRFortessa flow cytometer and BD FACSDiva software (both BD Biosciences, San Jose, CA, USA). The apoptosis analysis included the evaluation of early apoptosis (Annexin V positive/PI negative) and late apoptosis/necrosis (Annexin V positive /PI positive).
In general terms: Flow cytometry measures light scatter and fluorescence of single cells or particles in a stream.

The subject of assay [2] is A2780wt cells. The assay can be described thus: Comet assay (intracellular DNA damage). Conditions: 50 µM, 48 h incubation. The protocol: Given that platinum‐based drugs are known to commonly induce DNA damage, a comet assay was conducted using A2780wt cells. This assay detects DNA damage such as DNA single/double strand breaks and DNA fragmentation, a common feature of apoptosis. […] DMF (0.1%)‐treated cells were used as a negative control to establish baseline DNA integrity.
Cellular DNA damage can be visualized by employing a comet assay, which is a single cell gel electrophoresis assay. Hereby, A2780wt cells were seeded at a density of 2 × 10^6 into 25 cm^2 flasks. After letting the cells adhere for 24 h in a humidified atmosphere, the cell culture medium was exchanged for medium containing the respective compound. The cells were then incubated for 48 h with the platinum complexes or 4 h with etoposide, respectively. After incubation, the cell growth was stopped by removing the compound‐containing medium, washing the cells with phosphate‐buffered saline (PBS) and detaching them with a rubber policeman. The detached cells were then centrifuged at 700g for 2 min and the resulting pellet was then washed with 5 mL of PBS. After that, the cells were adjusted to a concentration of 1 × 10^6 cells/mL and were resuspended in ice cold PBS. A total of 75 µL of liquified agarose per condition was transferred onto the slide to create a base layer. This base layer was solidified by transferring the slide to 4°C for 15 min. Afterwards, 10 µL of the above‐mentioned cell suspension in PBS were mixed with 90 µL of agarose. A total of 75 µL of this was added to each base layer, respectively. This layer was also allowed to solidify at 4°C for 15 min. The slide was then transferred to a small basin which contained pre‐chilled lysis buffer (14.6 g NaCl, 20 mL EDTA solution, 10 mL lysis solution, 10 mL DMSO, 60 mL deionized H2O), where it remained for 45 min in the dark at 4°C. The lysis buffer was then aspirated and exchanged with a pre‐chilled alkaline solution (1.2 g NaOH, 0.2 mL EDTA solution, 100 mL deionized H2O), where it remained for further 30 min in the dark at 4°C. The slide was then transferred to a horizontal electrophoresis chamber which was filled with cold alkaline solution. The electrophoresis conditions were set to 1.5 V/cm and 300 mA for 20 min. After the electrophoresis, the slide was transferred into a small basin containing pre‐chilled, deionized H2O. After 2 min, the water was aspirated and this washing step was repeated twice more. After the final rinse, the slide was submerged in 70% ethanol for 5 min. Once the slide has dried, 100 µL of diluted Vista Green DNA Dye was added to each well. After 15 min of incubation, the slides were analyzed on an IX‐70 epifluorescence microscope (Olympus, Shinjuku, Japan) using a FITC filter.

In assay [3] the test system is A2780wt cells. The assay can be described thus: MTT assay, A2780wt cells. Conditions: MTT assay, 72 h exposure. As to the method: (§3) Carboplatin, a second‐generation platinum drug commonly used as part of standard first‐line chemotherapy for ovarian carcinoma, was examined as a reference compound due to its clinical relevance. Additionally, the nonmalignant bone marrow stromal cell line HS‐5 was included as a control to assess specificity of the complexes toward cancer cells.
(§4) Unloaded BGs (4 × 10^8 EcN or 2 × 10^8 Ec NM522, which is equivalent to the highest tested BG concentration) were tested as controls.
(§5) The exponentially growing cells were seeded at a density of 8 × 10^3 cells/well (A2780wt/cis) or 1 × 10^4 cells/well (HS‐5), respectively, into clear flat‐bottom 96‐well plates in triplicates. […] After another 72 h of incubation, the cellular metabolic activity was measured as an indicator of cell viability employing an MTT assay. Hereby, 20 µL of a 5 mg/mL MTT solution was added to each well, respectively. After 3 h of incubation, the medium was discarded, and the formazan crystals formed were dissolved in DMSO for 15 min with gentle shaking. […] The OD at 620 nm was subtracted from the OD at 595 nm. The OD of the medium was subtracted to exclude the unspecific staining caused by FCS‐containing medium. Cells treated with vehicle control (0.1% DMF) only were set at 100% metabolic activity. The IC50 values were calculated with Prism 8.0 (GraphPad Software Inc., Boston, MA, USA) using nonlinear regression. Significance was evaluated via a one sample t‐test performed with Prism 8.0.

Assay [4] concerns A2780cis cells. The assay can be described thus: MTT assay, A2780cis cells. The protocol:
as §3, §4, §5

Assay [5] concerns A2780cis cells. The assay can be described thus: Annexin V/PI staining and FACS analysis, A2780cis. Conditions: reference at 50 µM, 24 h. The protocol:
as §1, §2

The next assay relates to HS‐5 cells. The assay can be described thus: MTT assay, HS‐5 cells. Conditions: 72 h exposure, nonmalignant bone marrow stromal cells. As to the method: as §3
The exponentially growing cells were seeded at a density of 8 × 10^3 cells/well (A2780wt/cis) or 1 × 10^4 cells/well (HS‐5), respectively, into clear flat‐bottom 96‐well plates in triplicates. Following 24 h of incubation for the adherence of the cells at 37°C in a humidified atmosphere (5% CO2/95% air), the test compounds were added. […] For the evaluation of the cell growth inhibition by the compounds loaded in BGs, the BG suspensions were directly diluted in RPMI 1640 to the desired testing concentration (25 µM). After another 72 h of incubation, the cellular metabolic activity was measured as an indicator of cell viability employing an MTT assay. Hereby, 20 µL of a 5 mg/mL MTT solution was added to each well, respectively. After 3 h of incubation, the medium was discarded, and the formazan crystals formed were dissolved in DMSO for 15 min with gentle shaking. Afterward, the optical density (OD) was measured at 595 and 620 nm, respectively on an EnSpire Multimode Plate Reader (revvity, Waltham, MA, USA). The OD at 620 nm was subtracted from the OD at 595 nm. The OD of the medium was subtracted to exclude the unspecific staining caused by FCS‐containing medium. Cells treated with vehicle control (0.1% DMF) only were set at 100% metabolic activity. The IC50 values were calculated with Prism 8.0 (GraphPad Software Inc., Boston, MA, USA) using nonlinear regression. Significance was evaluated via a one sample t‐test performed with Prism 8.0.
Background: Formazan colour is commonly taken as a measure of viable cells.

Assay [6] concerns surface calreticulin on A2780cis cells. Put plainly: Immunofluorescent surface calreticulin staining, A2780cis. Conditions: oxaliplatin at 1 µM for 24 h. The protocol:
(§6) Oxaliplatin, a known metal‐based ICD inducer, was included for comparison.
(§7) A2780wt or A2780cis cells were seeded at a density of 1.2 × 10^5 on cover slips and allowed to adhere for 24 h. […] Subsequently, the cells were washed again three times with PBS and they were incubated after adding the secondary antibody (Alexa‐Fluor‐conjugated anti‐rabbit, 1:200), for 45 min at rt. Subsequently, the cells were washed again three times with PBS and they were mounted on slides with mounting medium. After letting them dry overnight, visualization was performed by spinning disk confocal microscopy. […] Acquired images were background subtracted, individual cells were manually segmented, and fluorescence intensity for the calreticulin staining was quantified with a FIJI software. Two repetitions of the experiment were performed, where at least 20 cells per condition were analyzed and the mean intensity of each sample was calculated, respectively.

In assay [7] the test system is surface calreticulin on A2780wt cells. Put plainly: Immunofluorescent surface calreticulin staining, A2780wt. Conditions: oxaliplatin at 1 µM for 24 h. As to the method: as §6, §7

These results are taken from article PMC12476087, “Loading of Dicarboxylatoplatinum(II)‐NHC Complexes in Bacterial Ghosts as an Advanced Development in Cancer Therapy” (Archiv Der Pharmazie, 2025).

In the case of `[NH2][Pt]1([NH2])[O]C(=O)C2(CCC2)C(=O)[O]1` [Carboplatin, (SP‐4‐2)‐diammine(1,1‐cyclobutanedicarboxylato)platinum(II), reference compound], the early apoptosis in the assay on A2780wt cells [1] turned out to be 7.90 ± 0.29; with A2780cis cells [5], 6.47 ± 1.75. Besides, the figures for the late apoptosis/ necrosis with A2780wt cells [1] and in the assay with A2780cis cells [5] were 16.8 ± 0.69 and 12.6 ± 1.17, respectively. For the same compound, the “intracellular DNA damage (comet formation)” value in the assay with A2780wt cells [2] is listed as “did not show any evidence of comet formation”. For the same compound, the concentration for half-maximal inhibition (IC50) was determined as 33.6 ± 2.1 µM in the assay on A2780wt cells [3], 104 ± 11.5 µM with A2780cis cells [4] (72 h exposure) and 24.4 ± 0.99 µM in the assay with HS‐5 cells. Further, the “Resistance factor RF = IC50(A2780cis)/IC50(A2780wt)” value in the assay with A2780cis cells [4] (72 h) came to 3.1.

With `O=C1[O][Pt]2([NH][C@@H]3CCCC[C@H]3[NH]2)[O]C1=O` [oxaliplatin, (SP‐4‐2)‐(1R,2R‐diaminocyclohexane)oxalatoplatinum(II), reference compound], the “x‐fold intensity of surface calreticulin compared to untreated cells” value in assay [6] is 1.36 ± 0.24 x‐fold; in assay [7], 0.86 ± 0.24 x‐fold.

A word on the IC50: it is the concentration that gives 50% inhibition. A lower IC50 goes with greater potency.
